Results: patent US20090069417A1, “CAROTENOID OXIDATION PRODUCTS AS CHEMOPREVENTIVE AND CHEMOTHERAPEUTIC AGENTS” (priority 2005, published 2009)

Columns and labels:
[1] = test system: antioxidant response element (ARE); assay: ARE reporter gene (luciferase) assay, transient transfection; type: cell-based, human; conditions: FIG. 1, mean of 3-6 experiments, expressed as ratio to stimulation obtained with tBHQ, compared in words
Source text: ARE reporter constructs were provided by Dr. J. J. Gipp (University of Wisconsin Medical School, Madison, Wis.; Ref 18). NQO1hARE-tk-luc and GCShARE4-tk-luc contain sequences of the active response elements from the promoters of human NQO1 and GCS heavy subunit, respectively. GCShARE4m-tk-luc, a non-active mutant form of the latter construct, contains a single base mutation in the relevant sequence.
Cell transfection and reporter gene assays were generally carried out as follows. Some variations may be adopted for different cell lines: Cells were transfected using TFx-50 reagent (Promega, Madison, Wis.) with ca. 0.07 μg of DNA containing 0.05 μg of reporter plasmid and 0.02 μg of Renilla luciferase expression vector (P-RL-null vector, Promega) as an internal standard. For this purpose, cells were seeded in 24-well plates (100,000 cells per well). After 1 day, cells were rinsed twice with the appropriate culture medium without serum, followed by the addition of 0.2 mL of medium containing DNA and TFx-50 reagent at a charge ratio of 1:3. The cells were then incubated for 30 minutes at 37° C. in 95% air/5% CO2. Four hundred microliters of medium containing 3% charcoal-stripped delipidated FCS were added and incubation continued for 8 hours. This was then replaced by medium supplemented with 3% delipidated FCS and the test compounds and cells were incubated for another 16 hours. Cell extracts were prepared for luciferase reporter assay (Dual Luciferase Reporter Assay System, Promega) according to the manufacturer's instructions.
The effects of lycopene and several lycopene derivatives on antioxidant response element (ARE) induction were tested in all of the cancer cell lines mentioned above. The assay employed measures the transcriptional activity of the antioxidant response element which is activated by the Nrf2 transcription factor, and its activation by carotenoids and their derivatives. Parts of a promoter of the genes of interest were fused to a luciferase reporter gene as described in Materials and Methods. The constructs were transfected into the cells. Cells were incubated with carotenoids or derivatives and activation of transcription was measured.
The results are depicted in FIG. 1 as the mean of 3-6 experiments. The standard errors of the mean (SEs) (not shown) were not higher than 10% of the mean. In order to decrease the variation between experiments, the results are expressed as the ratio of stimulation obtained with each specific derivative to that obtained with tBHQ (a well known positive control in this system).

[2] = test system: antioxidant response element (ARE) in MCF-7 and T47D cells; assay: ARE induction in human breast cancer cell lines (FIG. 2A); type: cell-based; conditions: compared with lycopene
Description: Cell transfection and reporter gene assays were generally carried out as follows. Some variations may be adopted for different cell lines: Cells were transfected using TFx-50 reagent (Promega, Madison, Wis.) with ca. 0.07 μg of DNA containing 0.05 μg of reporter plasmid and 0.02 μg of Renilla luciferase expression vector (P-RL-null vector, Promega) as an internal standard. For this purpose, cells were seeded in 24-well plates (100,000 cells per well). After 1 day, cells were rinsed twice with the appropriate culture medium without serum, followed by the addition of 0.2 mL of medium containing DNA and TFx-50 reagent at a charge ratio of 1:3. The cells were then incubated for 30 minutes at 37° C. in 95% air/5% CO2. Four hundred microliters of medium containing 3% charcoal-stripped delipidated FCS were added and incubation continued for 8 hours. This was then replaced by medium supplemented with 3% delipidated FCS and the test compounds and cells were incubated for another 16 hours. Cell extracts were prepared for luciferase reporter assay (Dual Luciferase Reporter Assay System, Promega) according to the manufacturer's instructions. […]

MCF-7 and T47D cells = assay: Cell proliferation, [3H]thymidine incorporation, mammary cancer cells (FIG. 2B); type: cell-based, human; conditions: compared with lycopene
Description: MCF-7, human mammary cancer cells were purchased from American Type Culture Collection (Rockwell, Md.). MCF-7 cells were grown in DMEM containing penicillin (100 units/mL), streptomycin (0.1 mg/mL), nystatin (12.5 Ag/mL), 0.6 μg/mL insulin, and 10% FCS. T47D, human mammary cancer cell line, were provided by Dr. Yafa Keidar (Tel-Aviv University, Israel) and were grown in DMEM medium. LNCaP human prostate cancer cells were purchased from American Type Culture Collection (Rockwell, Md.) and were grown on RPMI medium. The medium contained penicillin (100 U/ml), streptomycin (0.1 mg/ml) nystatin (12.5 μg/ml), and 10% fetal calf serum (FCS), and 6 μg/ml insulin. Prior to each experiment, the cells were depleted of steroid hormones and maintained for 3-5 days in phenol red-free DMEM supplemented with 10% DCC FCS.
MCF-7, LNCaP and T47D cells were seeded in 96-well plates. After one day, the medium was replaced with one containing the various materials. In each day of the experiment one plate was used for the thymidine incorporation assay. Thymidine incorporation was determined as follows: 2.5 μCi/well of [^3H]thymidine (specific radioactivity 5 mCi/mmol) containing cold thymidine (100 μM) was added and the plate were incubated (37° C.) for 1 hr (MCF-7 cells) or for 3 hr (LNCaP, T47D cells). […] Radioactivity was determined by a radioactive image analyzer (BAS 1000, Fuji, Japan). […]

[3] = test system: HL-60 human promyelocytic leukemia cells; conditions: HL-60 cells; cited from earlier work
[4] = test system: WB-F344 rat liver epithelial cells; conditions: cited from earlier work
[5] = test system: reporter genes fused with ARE sequences; conditions: transiently transfected cancer cells; cited from earlier work
[6] = test system: mammary, endometrial, lung and leukemic cancer cell growth; conditions: lung and leukemic cancer cells, dose-dependent, read-out: IC50, inhibition of cancer cell growth; cited from earlier work

Compound: C\C(C=O)=C/C=C/C=C(\C)C=O [12,12′, diapo-12,12′-lycopendial]
- stimulation of transcription of ARE reporter genes [1]: much less active

Compound: CC(/C=C/C=O)=C\C=C\C=C(C)\C=C\C=O [10,10′, diapo-10,10′-lycopendial]
- stimulation of transcription of ARE reporter genes [1]: more active than the parent molecule lycopene
- stimulation of transcription of ARE reporter genes ([1]; listed as 10′10): most active
- ARE induction [2]: more active than lycopene
- inhibition of cell proliferation (MCF-7 and T47D cells): more active than lycopene

Compound: CC(=O)/C=C/C=C(C)/C=C/C=O [(E,E,E)-4-methyl-8-oxo-2,4,6-nonatrienal]
- induction of apoptosis [3]: induces apoptosis

Compound: diapo-8′,15-lycopendial
- stimulation of transcription of ARE reporter genes [1]: more active than the parent molecule lycopene
- stimulation of transcription of ARE reporter genes ([1]; listed as 8′15): also active

Compound: C\C(C=O)=C/C=C/C(C)=C/C=C/C=C(C)/C=C/C=C(\C)C=O [8,8′, diapo-8,8′-lycopendial]
- stimulation of transcription of ARE reporter genes [1]: much less active
- ARE induction [2]: less active
- inhibition of cell proliferation (MCF-7 and T47D cells): less active

Compound: C\C(C=O)=C/C=C/C=C(C)/C=C/C=C(\C)C=O [8′,12, diapo-8′,12-lycopendial]
- stimulation of transcription of ARE reporter genes [1]: more active than the parent molecule lycopene
- stimulation of transcription of ARE reporter genes ([1]; listed as 8′12): most active

Compound: C\C(C=O)=C/C=C/C=C(C)/C=C/C=C(C)/C=C/C=O [2,7,11-trimethyl-tetradecahexaene-1,14-dial]
- stimulation of gap junctional communication (GJC) [4]: stimulates gap junctional communication

Compound: CC(C)=CCC/C(C)=C/C=C/C(C)=C/C=C/C(C)=C/C=C/C=C(C)/C=C/C=C(C)/C=C/C=C(\C)CCC=C(C)C [lycopene, Lycopene]
- transactivation of ARE reporter genes [5]: capable of transactivating the expression of reporter genes fused with ARE sequences
- IC50 [6]: ~2 µM
